Values of other authors as cited in patent publication US8506359B2, “Aqueous dispersion for chemical mechanical polishing and chemical mechanical polishing method” (JSR Corporation, priority 2008, dated 2013).

Conditions: 25° C.; second carboxyl group for two carboxyl groups, third carboxyl group for three or more

Question: With `O=C(O)C1CCCCCCC1C(=O)O` (stereo not drawn) [1,2-Cyclooctanedicarboxylic acid (trans), 1,2-Cyclooctanedicarboxylic acid] as the molecule, how does the pKa read?
Answer: The pKa was 6.24.

Question: For `O=C(O)C1CCCC1C(=O)O` (stereo not drawn) [1,2-Cyclopentanedicarboxylic acid (trans)], which pKa is on record?
Answer: The pKa was 5.99.

Question: For `O=C(O)C1CCCCCC1C(=O)O` (stereo not drawn) [1,2-Cycloheptanedicarboxylic acid (trans)], which pKa is on record?
Answer: Its pKa is 6.18.

Question: For `O=C(O)C1CCCCCC1C(=O)O` (stereo not drawn) [1,2-Cycloheptanedicarboxylic acid (cis), 1,2-Cycloheptanedicarboxylic acid], which pKa is on record?
Answer: The pKa was 7.60.

Question: With `O=C(O)C1CCCCCCC1C(=O)O` (stereo not drawn) [1,2-Cyclooctanedicarboxylic acid (cis), 1,2-Cyclooctanedicarboxylic acid] as the molecule, how does the pKa read?
Answer: The pKa was 7.34.

Question: For `O=C(O)C1CCCC1C(=O)O` (stereo not drawn) [1,2-Cyclopentanedicarboxylic acid (cis), 1,2-Cyclopentanedicarboxylic acid], which pKa is on record?
Answer: Its pKa is 6.57.
